Measurements taken from patent US20260166159A1, “KRAS G12D DEGRADATION AGENT, AND PREPARATION METHOD AND USE THEREFOR” (LEADINGTAC PHARMACEUTICAL (SHAOXING) CO., LTD., priority 2022, published 2026).

Columns and labels:
[1] = tested on: KRAS G12D mutant human pancreatic cancer cell HPAC; experiment: 3D cell proliferation inhibition assay, HPAC; format: cell-based; details: 168 h, 7 days, CTG
Summary of the method: (§1)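 For this 7-day anchorage-independent assay, 5×10^2 cells per well were exposed to 10000–0.026 nM test compound with 0.2% DMSO at 37 °C. ATP-based luminescence (CTG) gave viability, and percent inhibition versus DMSO controls was curve-fitted to obtain IC50.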

[2] = tested on: KRAS G12D mutant human lung cancer cell A427; experiment: 3D cell proliferation inhibition assay, A427; format: cell-based; details: A-427, 168 h, A427, 7 days, CTG
Summary of the method: as §1

[3] = tested on: KRAS G12D mutant human pancreatic cancer cell Panc 04.03; experiment: 3D cell proliferation inhibition assay, Panc 04.03; format: cell-based; details: 168 h, Panc 04.03, 7 days, CTG, numeric values
Summary of the method: as §1

[4] = tested on: KRAS G12D mutant human gastric cancer cell AGS; experiment: 3D cell proliferation inhibition assay, AGS; format: cell-based; details: 168 h, 7 days, CTG
Summary of the method: as §1

KRAS-G12D [5] = molecular target: T1, KRAS-G12D (Homo sapiens, UniProt P01116, G12D); experiment: KRAS-G12D degradation assay (Western Blot), AGS cells; format: cell-based; details: 24 h
T1 construct: endogenous in cells; host or cells: A-427 (ATCC), AGS, AsPc-1, Panc 04.03
T1 sequence (P01116 1-188 isoform P01116-2 G12D): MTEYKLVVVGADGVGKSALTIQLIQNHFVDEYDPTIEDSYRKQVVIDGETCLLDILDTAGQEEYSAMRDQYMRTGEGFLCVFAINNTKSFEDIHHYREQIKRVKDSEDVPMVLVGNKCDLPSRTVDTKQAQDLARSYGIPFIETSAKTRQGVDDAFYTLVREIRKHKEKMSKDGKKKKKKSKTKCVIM
Protocol: (§2) The degradation effects of the compounds on KRAS-G12D were investigated on KRAS G12D mutant human lung cancer cell A-427 (ATCC), KRAS G12D mutant human gastric cancer cell AGS, KRAS G12D mutant human metastatic pancreatic cancer cell AsPc-1, and KRAS G12D mutant human pancreatic adenocarcinoma cell Panc 04.03. The specific procedures were as follows: 0.95 mL of cells were seeded into each well of a 24-well cell culture plate to achieve a cell density of 5×10^5 cells/well; and the cell plate was incubated in an incubator at 37° C. with 5% CO2 overnight. Then 50 μL of the compound solution after dilution was added to each of the wells with the corresponding cells, so that the final concentration of the compound was in a range of 0.03-3000 nM. The final concentration of DMSO was 0.25%. After the compounds were added, the cell plate was incubated in the incubator at 37° C. with 5% CO2 for 24 h. The culture medium in the 24-well cell culture plate was removed, and the plate was washed twice with 1×PBS (KeyGEN). 120 μL of RIPA (strong) lysis buffer (Beyotime) supplemented with 1 mM phenylmethylsulfonyl fluoride, a protease inhibitor mixture (Beyotime), and a protease phosphatase inhibitor mixture (Beyotime) was added to lyse adherent A-427 cells at the bottom of the cell culture plate. After the plate was left to stand on ice for 30 min, the protein lysate in each well was transferred to a 1.5 mL centrifuge tube and centrifuged at 15000 g for 20 min at 4° C. The cell lysate supernatants after centrifugation were cryopreserved in a refrigerator at −80° C. for later use.
(§3) After the samples of the cell lysate supernatants that had been prepared were thawed from the refrigerator at −80° C., the total protein concentrations of the cell lysates were determined using a BCA protein quantification kit (Tiangen). The total protein concentrations of the samples were then adjusted to 0.5 μg/μL with PBS and 5×SDS-PAGE protein loading buffer (Beyotime), and the samples were incubated in a water bath at 100° C. for 15 min. The samples were then incubated in an ice bath for 5 min and centrifuged at 14000 g for 1 min at 4° C., and the supernatants were mixed well as loading samples for the Western Blot assay. The samples were loaded into wells of a 10% precast gel (KeyGEN) with a loading volume of 10 μL (total protein: 5 μg), a sufficient Tris-MOPS-SDS running buffer (Adamas) was added, and then electrophoresis was performed at a constant voltage of 120 V for 55 min. After the electrophoresis, the proteins on the gel were transferred to PVDF membranes at a constant current of 250 mA for 55 min. After the membrane transfer, the PVDF membranes were incubated in 1× Quick Block blocking buffer (Beyotime) at room temperature for 30 min. After the blocking, the PVDF membranes were separately incubated at 4° C. overnight with the KRAS antibody (Abcam) diluted in a ratio of 1:1000 and the […] antibody (Abcam) diluted in a ratio of 1:2000 in 5% BSA as the diluent, and then washed with 1×TBST buffer (2.4 g of Tris, 8.8 g of NaCl, 1.5 mL of Tween 20, with pH adjusted to 7.4, with the volume brought to 1 L) 3 times for 10 min/time. The membranes were incubated with a secondary antibody (Abcam) diluted in 5% BSA at room temperature for 2 h, and then washed with 1×TBST buffer 3 times for 10 min/time. Finally, the membranes were incubated with Clarity Western ECL Substrate (BIO-RAD) for 5 min for luminescence and color development, and a ChemiScope 6200 Touch chemiluminescence imaging system (Clinx) was used for color development and protein mapping. Gray value analysis of the protein maps was performed using the chemiluminescence analysis software (Clinx). The gray correction value for each sample was calculated using the formula: gray correction value=(gray value of target protein/gray value of corresponding internal reference)×10^3. Then degradation rates were calculated by comparison with the gray correction value of the control group. […]

[6] = tested on: KRAS G12D mutant human metastatic pancreatic cancer cell AsPc-1; experiment: 3D cell proliferation inhibition assay, AsPc-1; format: cell-based; details: ASPC1, 168 h, AsPc-1, 7 days, CTG, numeric values
Summary of the method: as §1

KRAS-G12D [7] = molecular target: T1, KRAS-G12D; experiment: KRAS-G12D degradation assay (Western Blot), A-427 cells; format: cell-based; details: A427 cells, 24 h; for Dmax: A-427
Summary of the method: (§4)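 Western blotting of lysates (5 μg protein) quantified KRAS against a β-actin reference after 24 h exposure to compound at final 0.03–3000 nM in 0.25% DMSO. Cells were A-427, AGS, AsPc-1 or Panc 04.03, all KRAS G12D, at 5×10^5/well. Degradation versus control yielded DC50 and Dmax.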

KRAS-G12D [8] = molecular target: T1, KRAS-G12D; experiment: KRAS-G12D degradation assay (Western Blot), AsPc-1 cells; format: cell-based; details: for DC50: 24 h; for Dmax: ASPC1, 24 h
Summary of the method: as §4

KRAS-G12D [9] = molecular target: T1, KRAS-G12D; experiment: KRAS-G12D degradation assay (Western Blot), Panc 04.03 cells; format: cell-based; details: 24 h
Protocol: as §2, §3

[10] = molecular target: T2, Human KRAS G12D 6His-tagged (Homo sapiens, UniProt P01116, G12D); experiment: KRAS-G12D/GTP binding assay (HTRF); details: class symbols
T2 construct: purchased PerkinElmer
T2 sequence (P01116 1-188 isoform P01116-2 G12D): as above
Summary of the method: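 Compounds at 0.02-5000 nM final (0.5% DMSO) were tested for blocking GTP Red tracer binding to His-tagged KRAS G12D, detected by Eu-cryptate anti-His antibody after 1 h, 25° C. Inhibition taken from 665/620 nm ratio relative to control, then fitted to give IC50.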

SMILES	IC50 [1] [nM]	IC50 ([2]; numeric values) [nM]	IC50 [3] [nM]	IC50 ([4]; numeric values) [nM]	DC50 (KRAS-G12D [5]) [nM]	Dmax (KRAS-G12D [5]) [%]	IC50 [6] [nM]	DC50 (KRAS-G12D [7]; numeric values) [nM]	Dmax (KRAS-G12D [7]; numeric values) [%]	DC50 (KRAS-G12D [8]) [nM]	Dmax (KRAS-G12D [8]) [%]	DC50 (KRAS-G12D [9]) [nM]	Dmax (KRAS-G12D [9]) [%]	IC50 ([2]; class symbols) [nM]	IC50 [10] [nM]	IC50 ([4]; class symbols) [nM]	DC50 (KRAS-G12D [7]; class symbols) [nM]	Dmax (KRAS-G12D [7]; class symbols) [%]
C#Cc1c(F)ccc2cc(O)cc(-c3ncc4c(N5CC6CCC(C5)N6)nc(OC[C@H](C)CN5CCN(CC6CCC7(CC6)CCN(C(=O)c6ccc(OC)c(N8CCC(=O)NC8=O)c6)CC7)CC5)nc4c3F)c12 [Example 90]	2.44	28.3	8.82	0.65	10.6	98.9	1.19	0.86	95.6	1.87	100							
C#Cc1cccc2cc(O)cc(-c3ccc4c(N5CC6CCC(C5)N6)nc(OCC5(CN6CCN(CC7CCC8(CC7)CCN(C(=O)c7ccc(Cl)c(N9CCC(=O)NC9=O)c7)CC8)CC6)CC5)nc4c3F)c12 [Example 78, 1-(5-(9-((4-((1-(((4-(3,8-diazabicyclo[3.2.1]octan-3-yl)-7-(8-ethynyl-3-hydroxynaphthalen-1-yl)-8-fluoroquinazolin-2-yl)oxy)methyl)cyclopropyl)methyl)piperazin-1-yl)methyl)-3-azaspiro[5.5]undecane-3-carbonyl)-2-chlorophenyl)dihydropyrimidine-2,4(1H,3H)-dione]	18.7	16.3	37.9	9.25	28.9	92.6	17	10.1	70.2	23.7	100	16.3	100					
C#Cc1cccc2cc(O)cc(-c3ccc4c(N5CC6CCC(C5)N6)nc(OCC5(CN6CCN(CC7CCC8(CC7)CCN(C(=O)c7ccc(C)c(N9CCC(=O)NC9=O)c7)CC8)CC6)CC5)nc4c3F)c12 [Example 77, 1-(5-(9-((4-((1-(((4-(3,8-diazabicyclo[3.2.1]octan-3-yl)-7-(8-ethynyl-3-hydroxynaphthalen-1-yl)-8-fluoroquinazolin-2-yl)oxy)methyl)cyclopropyl)methyl)piperazin-1-yl)methyl)-3-azaspiro[5.5]undecane-3-carbonyl)-2-methylphenyl)dihydropyrimidine-2,4(1H,3H)-dione]	9.54	17.8	31.5	8.9	1.47	100	6.75	1.76	94.5	13.2	98.2	26.2	98.5					
Cc1ccc(C(=O)N2CCC3(CCC(CN4CCN(CC5(COc6nc(N7CC8CCC(C7)N8)c7cnc(-c8cc(O)cc(Cl)c8C8CC8)c(F)c7n6)CC5)CC4)CC3)CC2)cc1N1CCC(=O)NC1=O [Example 81, 1-(5-(9-((4-((1-(((4-(3,8-diazabicyclo[3.2.1]octan-3-yl)-7-(3-chloro-2-cyclopropyl-5-hydroxyphenyl)-8-fluoropyrido[4,3-d]pyrimidin-2-yl)oxy)methyl)cyclopropyl)methyl)piperazin-1-yl)methyl)-3-azaspiro[5.5]undecane-3-carbonyl)-2-methylphenyl)dihydropyrimidine-2,4(1H,3H)-dione]	4.37	67.1	27.8	5.52	2.99	80.3	13	16.8	76.5	17.8	98.2							
C#Cc1cccc2cc(O)cc(-c3ncc4c(N5CC6CCC(C5)N6)nc(OCC5(CN6CCN(CC7CCC8(CC7)CCN(C(=O)c7ccc(C)c(N9CCC(=O)NC9=O)c7)CC8)CC6)CC5)nc4c3F)c12 [Example 55, 1-(5-(9-((4-((1-(((4-(3,8-diazabicyclo[3.2.1]octan-3-yl)-7-(8-ethynyl-3-hydroxynaphthalen-1-yl)-8-fluoropyrido[4,3-d]pyrimidin-2-yl)oxy)methyl)cyclopropyl)methyl)piperazin-1-yl)methyl)-3-azaspiro[5.5]undecane-3-carbonyl)-2-methylphenyl)dihydropyrimidine-2,4(1H,3H)-dione]	4.28				1.91	99.2				11.1	95.2	4.08	98.6	≤ 50	≤ 50	≤ 50	≤ 50	80 to 100
[2H]C([2H])([2H])c1ccc(C(=O)N2CCC3(CCC(CN4CCN(C[C@@H](C)COc5nc(N6CC7CCC(C6)N7)c6cnc(-c7cc(O)cc8ccc(F)c(C#C)c78)c(F)c6n5)CC4)CC3)CC2)cc1N1CCC(=O)NC1=O [Example 109, 1-(5-(9-((4-((R)-3-((4-(3,8-diazabicyclo[3.2.1]octan-3-yl)-7-(8-ethynyl-7-fluoro-3-hydroxynaphthalen-1-yl)-8-fluoropyrido[4,3-d]pyrimidin-2-yl)oxy)-2-methylpropyl)piperazin-1-yl)methyl)-3-azaspiro[5.5]undecane-3-carbonyl)-2-(methyl-d3)phenyl)dihydropyrimidine-2,4(1H,3H)-dione]	1.62		6.73	3.98	4.8	94.5	1.42			0.64	98.8							
